Assay results: article PMC4757856 (Medchemcomm, 2015)

Assays:
HepG2 cell line = assay: HepG2 toxicity assay; type: cell-based, human; conditions: 48 hours, MTS
PfNMT = target: T1, PfNMT (Plasmodium falciparum, UniProt Q9U419); assay: NMT enzyme inhibition assay; type: biochemical; conditions: for LipE: LipE = pKi (PfNMT) - clog P
T1 sequence (Q9U419 1-410): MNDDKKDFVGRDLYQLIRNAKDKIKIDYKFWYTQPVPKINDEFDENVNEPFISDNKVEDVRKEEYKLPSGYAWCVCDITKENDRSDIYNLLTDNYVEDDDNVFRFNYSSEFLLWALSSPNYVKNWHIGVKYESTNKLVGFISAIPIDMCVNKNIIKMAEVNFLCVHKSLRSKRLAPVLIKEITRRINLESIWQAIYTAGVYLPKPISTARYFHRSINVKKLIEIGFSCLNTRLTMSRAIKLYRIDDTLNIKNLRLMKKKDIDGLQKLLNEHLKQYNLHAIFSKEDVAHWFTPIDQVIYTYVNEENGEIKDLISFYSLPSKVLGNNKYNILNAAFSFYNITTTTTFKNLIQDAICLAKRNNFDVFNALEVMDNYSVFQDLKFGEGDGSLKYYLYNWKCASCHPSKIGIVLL

Compound	LD50 (HepG2 cell line) [µM]	LipE (PfNMT)	further results
Cc1nn(C)c(C)c1Cc1noc(-c2cccnc2OC2CCNCC2)n1 [Compound 25]	>100	–	–
c1ccc(Cc2noc(-c3cccnc3OC3CCNCC3)n2)cc1 [Compound 7]	–	–	fold improvement in enzyme affinity (PfNMT; PfNMT, 7 vs. 3): 10 fold
c1cnc(OC2CCNCC2)c(-c2nc(Cc3cccc4ncccc34)no2)c1 [Compound 30]	–	5.63	–
Cc1nn(C)c(C)c1Cc1noc(-c2cccnc2OC2CCN(C(C)C)CC2)n1 [Compound 28]	>100	–	–
COc1cccc(Cc2noc(-c3ccccc3OC3CCNCC3)n2)c1 [Compound 18]	–	3.32	–
